Experimental findings from article PMC1891437, “Hexose-6-phosphate Dehydrogenase Modulates 11β-Hydroxysteroid Dehydrogenase Type 1-Dependent Metabolism of 7-keto- and 7β-hydroxy-neurosteroids” (PLoS ONE, 2007) are described below.

The target in assay [1] is T1, 11β-HSD1 (Homo sapiens, UniProt P28845).
T1 construct: expressed in transfected cells; host or cells: HEK-293 (transient, Ca2+-phosphate precipitation)
The assay is described as follows: 11β-HSD1 dehydrogenase activity (oxidation of cortisol) in lysates of HEK-293 cells expressing recombinant enzyme, competition by 7-oxygenated neurosteroids. The class given is biochemical. As to conditions: HEK-293 lysates; 50 nM [3H]-cortisol, 500 µM cofactor NAD+; mean±S.D., four experiments. As to the method:
(§1) HEK-293 cells were cultured in Dulbecco's Modified Eagle's Medium (DMEM) supplemented with 10% fetal calf serum (FCS), 50 units/ml penicillin, 50 µg/ml streptomycin and 2 mM glutamine. Cells were transfected with expression plasmids for FLAG-tagged 11β-HSD1 and myc-tagged H6PDH or pcDNA3.1 control using the Ca^2+-phosphate precipitation method. The epitope tags had no effect on enzymatic activities or expression levels of 11β-HSD1 and H6PDH [10], [49]. A total amount of 8 µg DNA was used per 10 cm culture dish or 2 µg DNA per well of a six-well culture plate.
(§2) The enzyme activity in intact cells was measured as described. Briefly, HEK-293 cells, grown in 10 cm culture dishes and transfected with FLAG-tagged 11β-HSD1 alone or co-transfected with myc-tagged H6PDH, were detached 24 h post-transfection and distributed in 96-well plates at a density of 30′000–40′000 cells per well. After 16 h, cells were incubated in serum- and steroid-free medium and the conversion of radiolabeled cortisone to cortisol (or the reverse activity) was determined upon incubation for 1 h at 37°C in a total volume of 50 µl containing 200 nM cortisone (or cortisol). The reaction was stopped by adding methanol containing 2 mM unlabeled cortisone and cortisol, followed by separation of steroids by TLC and scintillation counting. Measurements with freshly prepared cell lysates were carried out in the presence of [1,2,6,7-^3H]-cortisone and cofactor NADPH at final concentrations of 200 nM and 500 µM for the reductase reaction and with 50 nM [1,2,6,7-^3H]-cortisol and 500 µM cofactor NAD^+ for the dehydrogenase reaction, respectively, in the absence or presence of various concentrations of competing 7-oxygenated neurosteroid ligands. The concentration of dimethylsulfoxide or methanol from the solvent was 0.1% in all reactions and had no effect on enzyme activity. Data (mean±SD) were obtained from four independent experiments and were calculated using the Data Analysis Toolbox (Elsevier MDL, Allschwil, Switzerland).

Assay [2] deals with T1, 11β-HSD1. The experiment in a line: 11β-HSD1 reductase activity (reduction of cortisone) in lysates of HEK-293 cells expressing recombinant enzyme, competition by 7-oxygenated neurosteroids. The format is biochemical. As to conditions: HEK-293 lysates; 200 nM [3H]-cortisone, 500 µM NADPH; mean±S.D., four experiments. As to the method:
as §1, §2

Assay [3] addresses T1, 11β-HSD1. The experiment in a line: Steady state ratio of cortisone to cortisol in intact HEK-293 cells expressing 11β-HSD1. The format is cell-based. To be noted: 16 h, 20 µM inhibitor. As to the method:
as §1, §2

In assay [4] the target is T2, 11β-HSD1/H6PDH (Homo sapiens, UniProt P28845).
T2 construct: expressed in transfected cells; host or cells: HEK-293 (transient co-transfection, Ca2+-phosphate precipitation)
T2 sequence (P28845 whole entry): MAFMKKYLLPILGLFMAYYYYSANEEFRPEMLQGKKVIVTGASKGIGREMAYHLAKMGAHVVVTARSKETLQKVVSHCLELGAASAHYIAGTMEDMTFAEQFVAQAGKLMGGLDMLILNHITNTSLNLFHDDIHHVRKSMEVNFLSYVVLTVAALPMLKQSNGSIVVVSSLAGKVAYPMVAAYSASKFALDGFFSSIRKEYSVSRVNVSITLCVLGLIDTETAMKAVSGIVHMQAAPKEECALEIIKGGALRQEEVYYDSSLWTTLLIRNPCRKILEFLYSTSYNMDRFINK
The assay is described as follows: Steady state ratio of cortisone to cortisol in intact HEK-293 cells coexpressing 11β-HSD1 and H6PDH. As to conditions: 11β-HSD1/H6PDH cells, 16 h, 20 µM inhibitor, n = 4. The class given is cell-based. As to the method: as §1
as §2, with “After 16 h, cells were incubated in serum- and steroid-free medium and the conversion of radiolabeled cortisone to cortisol (or the reverse activity) was determined upon incubation for 1 h at 37°C in a total volume of 50 µl containing 200 nM cortisone (or cortisol).” left out

In assay [5] the target is T1, 11β-HSD1. The assay is described as follows: 7-keto-steroid reductase and 7-hydroxy-steroid dehydrogenase activity in intact transfected HEK-293 cells (GC-MS). The class given is cell-based. As to conditions: 1 µM inhibitor, intact HEK-293 cells. As to the method: as §1
HEK-293 cells were seeded in six-well plates at a density of 900′000 cells per well. After 24 h, cells were transfected with expression vector for 11β-HSD1 or co-transfected with vectors for 11β-HSD1 and H6PDH. An empty pcDNA3.1 plasmid was used in transfections lacking H6PDH to adjust total DNA amounts in all samples. The medium was replaced 18 h post-transfection by steroid-free medium followed by addition of 1 µM of the steroid substrate to be tested. […] After incubation for various time intervals, reactions were terminated by addition of an equal volume of dichloromethane, containing 500 ng medroxyprogesterone as an internal standard. Since radiolabeled C7-oxygenated metabolites were not commercially available, we applied GC-MS for detection. […]

[6] abbreviates: 11β-HSD1 cells, 200 nM radiolabeled cortisone, n = 4.

T1 sequence (P28845 whole entry): as above

In general, IC50 refers to the concentration that inhibits the measured activity by half. As for `C[C@]12CC[C@H](O)C[C@@H]1CC(=O)[C@@H]1[C@@H]2CC[C@]2(C)C(=O)CC[C@@H]12` [5α-androstane-3β-ol-7,17dione, 5α-androstane-3β-ol-7,17-dione], the results for the 50% inhibitory concentration (IC50) in assay [1] and in assay [2] were 18 ± 1 µM and 0.5 ± 0.11 µM, respectively.
The matching figures for `C[C@]12CC[C@H](O)CC1=CC(=O)[C@@H]1[C@@H]2CC[C@]2(C)C(=O)CC[C@@H]12` [7-ketodehydroepiandrosterone]: 29 ± 5 µM and 0.82 ± 0.07 µM.
The corresponding values for `CC(=O)[C@H]1CC[C@H]2[C@@H]3C(=O)C=C4C[C@@H](O)CC[C@]4(C)[C@H]3CC[C@]12C` [7-ketopregnenolone] are 5.4 ± 0.5 µM and 0.68 ± 0.11 µM.
The corresponding values for `C[C@]12CC[C@H](O)CC1=C[C@@H](O)[C@@H]1[C@@H]2CC[C@]2(C)C(=O)CC[C@@H]12` [7α-hydroxydehydroepiandrosterone] are 16 ± 1 µM and 45 ± 2 µM.
For `C[C@]12CC[C@H](O)CC1=C[C@H](O)[C@@H]1[C@@H]2CC[C@]2(C)C(=O)CC[C@@H]12` [7β-hydroxydehydroepiandrosterone], the IC50 was found to be 0.54 ± 0.05 µM in assay [1] and 7.7 ± 0.8 µM in assay [2].
The matching figures for `CC(=O)[C@H]1CC[C@H]2[C@@H]3[C@@H](O)C=C4C[C@@H](O)CC[C@]4(C)[C@H]3CC[C@]12C` [7β-hydroxypregnenolone]: 1.34 ± 0.49 µM and 2.4 ± 0.5 µM.
Turning to `O=C1CC(c2ccccc2)Oc2ccccc21` (stereo not shown) [Flavanone, flavanone], the “cortisol, percentage of total glucocorticoid (oxidation of cortisol to cortisone)” value in assay [3] (11β-HSD1 cells, 200 nM radiolabeled cortisol, n = 4) is reported as 61.2%. For the same molecule, in assay [3] (setting [6]), the “cortisol, percentage of total glucocorticoid (reduction of cortisone to cortisol)” value is 74.1% and the “cortisone, percentage of total glucocorticoid (reduction of cortisone to cortisol)” value is 25.9%. Moreover, the “effect of inhibitor on the steady state ratio of glucocorticoids” value in assay [3] (HEK-293 cells with 11β-HSD1 alone or with H6PDH) was “little or no effect on the steady state ratio of glucocorticoids”. Further, in assay [4] (200 nM radiolabeled cortisol), the “cortisol, percentage of total glucocorticoid (oxidation of cortisol to cortisone)” value worked out at 90.9% and the “cortisone, percentage of total glucocorticoid (oxidation of cortisol to cortisone)” value was determined as 9.1%. Also, in assay [4] (200 nM radiolabeled cortisone), the “cortisol, percentage of total glucocorticoid (reduction of cortisone to cortisol)” value was determined as 91.7% and the “cortisone, percentage of total glucocorticoid (reduction of cortisone to cortisol)” value is 8.3%.
In the case of `C1CCc2nnc(C34CC5CC(CC(C5)C3)C4)n2CC1` [T0504, 5H-1,2,4-triazolo(4,3-a)azepine,6,7,8,9-tetrahydro-3-tricyclo(3·3·1·13·7)dec-1-yl], in assay [5] (1 µM 7α-hydroxy-DHEA substrate, 3 h), the “effect of inhibitor on 11β-HSD1-dependent metabolism of 7α-hydroxy-DHEA” value is “prevented the formation of 7β-hydroxy-DHEA and 7-keto-DHEA”. In assay [5] (1 µM substrate, 3 h or 6 h), the “effect of inhibitor on 11β-HSD1-dependent metabolism of 7-ketopregnenolone and 5α-androstane-3β-ol-7,17-dione” value is reported as “almost completely abolished”.
